Measured values as given in ChEMBL document CHEMBL5500391, “Systematic Structural Modification of Squaraine Dye for Near-Infrared Window One and Two Multiplexed In Vivo Imaging and Photothermal Therapy” (J Med Chem, 2024).
Active and inactive are the calls of the source.

Columns and labels:
[1] = Drug uptake in mouse 4T1 cells assessed as increase in fluorescence measured upto 12 hrs by NIR-II fluorescence microscopic analysis; assay type: ADME, cell-based; conditions: 4t1, 12 h
4T1 [2] = assay: Cytotoxicity in mouse 4T1 cells at upto 100 uM incubated for 24 hrs by CCK-8 method; assay type: functional, cell-based
NIH3T3 = assay: Cytotoxicity in mouse 3T3 cells at upto 100 uM incubated for 24 hrs by CCK-8 method; assay type: toxicity, cell-based; conditions: nih3t3, 24 h
4T1 [3] = assay: Cytotoxicity in mouse 4T1 cells assessed as decrease in cell survival at 75 uM incubated for 24 hrs under laser irradiation by CCK-8 method; assay type: functional, cell-based
4T1 [4] = assay: Cytotoxicity in mouse 4T1 cells assessed as increase in red fluorescence at 100 uM incubated for 12 hrs by Calcein-AM and PI staining based fluorescence microscopy analysis; assay type: functional, cell-based
4T1 [5] = assay: Cytotoxicity in mouse 4T1 cells assessed as increase in red fluorescence at 100 uM incubated for 12 hrs followed by 808nm laser irradiation for 5 mins and measured after 12 hrs by Calcein-AM and PI staining based fluorescence microscopy analysis; assay type: functional, cell-based; conditions: time 1445.0 min
4T1 [6] = assay: Antitumor activity against mouse 4T1 cells xenografted in BALB/c mouse model assessed as increase in tumor temperature at 6.84 ug, IG pretreated with compound for 2 hrs followed by laser irradiation at 808nm 1.0 W/cm2 for 5 mins (reference value: 34 degreeC); assay type: functional; conditions: dose 6.84 µg, time 125 min, 2.083 h
4T1 [7] = assay: Antitumor activity against mouse 4T1 cells xenografted in BALB/c mouse model assessed as suppression of tumor at 6.84 ug, IG pretreated with compound for 2 hrs followed by laser irradiation at 808nm 1.0 W/cm2 for 5 mins and measured every two days for 14 days by vernier caliper analysis; assay type: functional; conditions: dose 6.84 µg, time 14.0 day
[8] = Toxicity in BALB/c mouse assessed as effect on body weight at 6.84 ug, IG pretreated with compound for 2 hrs followed by laser irradiation at 808nm 1.0 W/cm2 for 5 mins and measured every two days for 14 days; conditions: in vivo, po, 336 h, dose 6.84 µg, time 14 day
[9] = Toxicity in BALB/c mouse assessed as effect on body weight at 6.84 ug, IG measured every two days for 14 days; conditions: in vivo, po, 336 h, dose 6.84 µg, time 14 day
[10] = Toxicity in BALB/c mouse assessed as effect on tumor at 6.84 ug, IG measured after 14 days by H and E staining based analysis; conditions: in vivo, po, 336 h, dose 6.84 µg, time 14 day
[11] = Toxicity in BALB/c mouse assessed as effect on kidney at 6.84 ug, IG measured after 14 days by H and E staining based analysis; assay type: tissue-based; conditions: in vivo, po, 336 h, dose 6.84 µg, time 14 day
[12] = Toxicity in BALB/c mouse assessed as effect on spleen at 6.84 ug, IG measured after 14 days by H and E staining based analysis; assay type: tissue-based; conditions: in vivo, po, 336 h, dose 6.84 µg, time 14 day
[13] = Toxicity in BALB/c mouse assessed as effect on lung at 6.84 ug, IG measured after 14 days by H and E staining based analysis; assay type: tissue-based; conditions: in vivo, po, 336 h, dose 6.84 µg, time 14 day
[14] = Toxicity in BALB/c mouse assessed as effect on heart at 6.84 ug, IG measured after 14 days by H and E staining based analysis; assay type: tissue-based; conditions: in vivo, po, 336 h, dose 6.84 µg, time 14 day
[15] = Toxicity in BALB/c mouse assessed as effect on liver at 6.84 ug, IG measured after 14 days by H and E staining based analysis; assay type: tissue-based; conditions: in vivo, po, 336 h, dose 6.84 µg, time 14 day
4T1 [16] = assay: Antitumor activity against mouse 4T1 cells xenografted in BALB/c mouse model assessed as induction of apoptosis at 6.84 ug, IG measured every two days for 14 days by TUNEL assay; assay type: functional; conditions: dose 6.84 µg, time 14.0 day
4T1 [17] = assay: Antitumor activity against mouse 4T1 cells xenografted in BALB/c mouse model assessed as induction of apoptosis at 6.84 ug, IG pretreated with compound for 2 hrs followed by laser irradiation at 808nm 1.0 W/cm2 for 5 mins and measured every two days for 14 days by TUNEL assay; assay type: functional; conditions: dose 6.84 µg, time 14.0 day
[18] = Toxicity in BALB/c mouse assessed as effect on heart at 6.84 ug, IG pretreated with compound for 2 hrs followed by laser irradiation at 808nm 1.0 W/cm2 for 5 mins and measured after 14 days by H and E staining based analysis; assay type: tissue-based; conditions: in vivo, po, 336 h, dose 6.84 µg, time 14 day
[19] = Toxicity in BALB/c mouse assessed as effect on liver at 6.84 ug, IG pretreated with compound for 2 hrs followed by laser irradiation at 808nm 1.0 W/cm2 for 5 mins and measured after 14 days by H and E staining based analysis; assay type: tissue-based; conditions: in vivo, po, 336 h, dose 6.84 µg, time 14 day
[20] = Toxicity in BALB/c mouse assessed as effect on spleen at 6.84 ug, IG pretreated with compound for 2 hrs followed by laser irradiation at 808nm 1.0 W/cm2 for 5 mins and measured after 14 days by H and E staining based analysis; assay type: tissue-based; conditions: in vivo, po, 336 h, dose 6.84 µg, time 14 day
[21] = Toxicity in BALB/c mouse assessed as effect on lung at 6.84 ug, IG pretreated with compound for 2 hrs followed by laser irradiation at 808nm 1.0 W/cm2 for 5 mins and measured after 14 days by H and E staining based analysis; assay type: tissue-based; conditions: in vivo, po, 336 h, dose 6.84 µg, time 14 day
[22] = Toxicity in BALB/c mouse assessed as effect on kidney at 6.84 ug, IG pretreated with compound for 2 hrs followed by laser irradiation at 808nm 1.0 W/cm2 for 5 mins and measured after 14 days by H and E staining based analysis; assay type: tissue-based; conditions: in vivo, po, 336 h, dose 6.84 µg, time 14 day
[23] = Toxicity in BALB/c mouse assessed as effect on tumor at 6.84 ug, IG pretreated with compound for 2 hrs followed by laser irradiation at 808nm 1.0 W/cm2 for 5 mins and measured after 14 days by H and E staining based analysis; conditions: in vivo, po, 336 h, dose 6.84 µg, time 14 day
[24] = Toxicity in BALB/c mouse assessed as AST level in serum measured after 7 to 14 days by biochemical analysis; conditions: time 7-14 day
[25] = Toxicity in BALB/c mouse assessed as ALT level in serum measured after 7 to 14 days by biochemical analysis; conditions: time 7-14 day
[26] = Toxicity in BALB/c mouse assessed as ALB level in serum measured after 7 to 14 days by biochemical analysis; conditions: time 7-14 day
[27] = Toxicity in BALB/c mouse assessed as creatinine level in serum measured after 7 to 14 days by biochemical analysis; conditions: time 7-14 day
[28] = Toxicity in BALB/c mouse assessed as UREA level in serum measured after 7 to 14 days by biochemical analysis; conditions: time 7-14 day
[29] = Toxicity in BALB/c mouse assessed as effect on heart measured after 24 hrs by real-time NIR-II fluorescence imaging analysis; assay type: tissue-based; conditions: in vivo
[30] = Toxicity in BALB/c mouse assessed as effect on liver measured after 24 hrs by real-time NIR-II fluorescence imaging analysis; assay type: tissue-based; conditions: in vivo
[31] = Toxicity in BALB/c mouse assessed as effect on spleen measured after 24 hrs by real-time NIR-II fluorescence imaging analysis; assay type: tissue-based; conditions: in vivo
[32] = Toxicity in BALB/c mouse assessed as effect on lung measured after 24 hrs by real-time NIR-II fluorescence imaging analysis; assay type: tissue-based; conditions: in vivo
[33] = Toxicity in BALB/c mouse assessed as effect on kidney measured after 24 hrs by real-time NIR-II fluorescence imaging analysis; assay type: tissue-based; conditions: in vivo
[34] = Drug metabolism in Balb/c mouse liver administered as iv dose by NIR-II fluorescence imaging analysis; assay type: ADME, organism-based; conditions: in vivo
[35] = Drug excretion in Balb/c mouse liver administered as iv dose measured after 12 hrs by NIR-II fluorescence imaging analysis; assay type: ADME, organism-based; conditions: in vivo
4T1 [36] = assay: Induction of intracellular ROS generation in mouse 4T1 cells preincubated with compound followed by laser irradiation at 808nm 1.0 W/cm2 by DCFDA staining based analysis; assay type: functional, cell-based
[37] = Drug uptake in mouse Lymph node at 1000 long pass by fluorescence imaging based analysis; assay type: ADME, tissue-based; conditions: in vivo
[38] = Drug uptake in mouse Lymph node at 769/48nm long pass by fluorescence imaging based analysis; assay type: ADME, tissue-based; conditions: in vivo
[39] = Drug uptake in mouse Lymph node at 655/24nm band pass by fluorescence imaging based analysis; assay type: ADME, tissue-based; conditions: in vivo

O=C1C(/C=c2\c3cccc4cccc(c43)n2CCCCS(=O)(=O)O)=C([O-])C/1=C/C1=[N+](CCCCS(=O)(=O)O)c2cccc3cccc1c23
54 °C: T (4T1 [6])
Active: Drug uptake [1] | Drug excretion [35]
Non-Toxic: Activity (NIH3T3) | Activity [8] | Activity [9] | Activity [10] | Activity [11] | Activity [12] | Activity [13] | Activity [14] | Activity [15] | Activity [18] | Activity [19] | Activity [20] | Activity [21] | Activity [22] | Activity [23] | Activity [24] | Activity [25] | Activity [26] | Activity [27] | Activity [28] | Activity [29] | Activity [30] | Activity [31] | Activity [32] | Activity [33]
inactive: Activity (4T1 [2]) | Activity (4T1 [4]) | Activity (4T1 [36])
Metabolite_Detected: Drug metabolism [34]
active: Activity (4T1 [3]) | Activity (4T1 [5]) | Activity (4T1 [7]) | Activity (4T1 [16]) | Activity (4T1 [17])

CCn1/c(=C/C2=C([O-])C(=C/C3=[N+](CC)c4cccc5cccc3c45)/C2=O)c2cccc3cccc1c32
Active: Drug uptake [37]

CCN1/C(=C/C2=C([O-])C(=C/C3=[N+](CC)c4ccc5ccccc5c4C3(C)C)/C2=O)C(C)(C)c2c1ccc1ccccc21
Active: Drug uptake [38]

CCN1/C(=C/C2=C([O-])C(=C/C3=[N+](CC)c4ccccc4C3(C)C)/C2=O)C(C)(C)c2ccccc21
Active: Drug uptake [39]
